In PMC10925992 (Heliyon, 2024):
Counter-ions that a name gives are not always drawn.

Columns and labels:
[1] = molecular target: catalytic domain of USP7 (USP7-CD) (Homo sapiens, UniProt Q93009); assay: STD-NMR titration for dissociation constant; type: binding
[2] = molecular target: USP7-CD (Homo sapiens, UniProt Q93009); assay: Thermal shift assay; settings: decrease of Tm of USP7-CD, USP7 10 μM, ligand 1 mM
[3] = tested on: USP7, MDM2 and c-Myc mRNA in HCT-116 cells; assay: Quantitative gene expression analysis; type: cell-based, human; settings: HCT116, compound at IC50 concentration, 48 h, versus untreated cells
[4] = tested on: p53 mRNA in HCT-116 cells; assay: Quantitative gene expression analysis; type: cell-based, human; settings: HCT116, compound at IC50 concentration, 48 h, versus untreated cells
[5] = tested on: HCT116 cells; assay: MTT anti-proliferation assay; type: cell-based, human; settings: for IC50: Homo sapiens, HCT-116, 48 h; for inhibition of proliferation of cancerous cells: HCT116, MTT, 48 h
[6] = tested on: USP7; settings: read-out: IC50 of USP7 inhibition; no reference given; cited from earlier work

catalytic domain of USP7 (USP7-CD), sequence (Q93009 208-560): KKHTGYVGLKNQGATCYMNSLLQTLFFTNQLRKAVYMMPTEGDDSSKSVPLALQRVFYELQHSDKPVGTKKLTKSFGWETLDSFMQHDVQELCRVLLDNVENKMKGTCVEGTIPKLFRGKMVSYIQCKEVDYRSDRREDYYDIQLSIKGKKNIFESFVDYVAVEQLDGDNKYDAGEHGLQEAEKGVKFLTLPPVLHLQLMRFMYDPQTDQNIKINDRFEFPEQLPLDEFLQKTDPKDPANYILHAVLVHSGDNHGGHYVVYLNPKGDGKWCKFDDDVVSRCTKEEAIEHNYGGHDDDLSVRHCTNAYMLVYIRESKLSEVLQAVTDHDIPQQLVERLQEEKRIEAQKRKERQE
USP7-CD, sequence (Q93009 208-560): as above

Row | Structure (SMILES) | Kd [1] | mRNA expression of proto-oncogenes (USP7, MDM2, c-Myc) [3] | other results
1 | Nc1c(CC(=O)O)cccc1C(=O)c1ccc(Br)cc1 [Compound 1, Bromfenac Sodium] | 780 ± 530 µM |  | 
2 | CC(C(=O)O)c1cccc(C(=O)c2ccccc2)c1 (stereo not shown) [Compound 3, Ketoprofen] | 620 ± 560 µM |  | 
3 | Clc1ccccc1CN1CCc2sccc2C1 [Compound 8, Ticlopidine Hydrochloride] | 1490 ± 1410 µM |  | inhibition of proliferation of cancerous cells [5]: inactive
4 | COc1ccnc(C[S+]([O-])c2nc3ccc(OC(F)F)cc3[nH]2)c1OC (stereo not shown) [Compound 10, Pantoprazole Sodium] | 870 ± 280 µM | significantly decreased | IC50 [5]: 222 ± 0.29 µM
5 | CN(C)CCC[C@@]1(c2ccc(F)cc2)OCc2cc(C#N)ccc21 [Compound 11, Escitalopram] | 1220 ± 1120 µM | significantly decreased | mRNA expression of tumor suppressor gene (p53) [4]: non-significantly; IC50 [5]: 227.6 ± 0.71 µM
6 | N#Cc1nc2c(nc1C#N)-c1ccc(Cl)cc1C2=O [HBX 41108] |  |  | Thermal Shift (Δtm) ([2]; listed as 12): 6.20 °C; IC50 [6]: 0.424 µM

More lines, main results first:

Row | Kd [1] | Structure (SMILES) | mRNA expression of proto-oncogenes (USP7, MDM2, c-Myc) [3] | other results
7 | 760 ± 560 µM | O=C(O)Cc1ccccc1Nc1c(Cl)cccc1Cl [Compound 2, Diclofenac Sodium] |  | Thermal Shift (Δtm) [2]: 2.40 °C
8 | 910 ± 700 µM | CC(CCc1ccccc1)NCC(O)c1ccc(O)c(C(N)=O)c1 (stereo not shown) [Compound 4, Labetalol Hydrochloride] |  | Thermal Shift (Δtm) [2]: 3.95 °C
9 | 660 ± 460 µM | CCN(CC)CC#CCOC(=O)C(O)(c1ccccc1)C1CCCCC1 (stereo not shown) [Compound 6, Oxybutynin HCl] | significantly decreased | 
10 | 1100 ± 880 µM | CN1CCC(=C2c3ccccc3CC(=O)c3sccc32)CC1 [Compound 7, Ketotifen] | significantly decreased | mRNA expression of tumor suppressor gene (p53) [4]: non-significantly; IC50 [5]: 89 ± 1.55 µM
11 | 1000 ± 560 µM | Nc1nnc(-c2cccc(Cl)c2Cl)c(N)n1 [Compound 9, Lamotrigine] |  | inhibition of proliferation of cancerous cells [5]: inactive
